In patent US8916551B2, “Heterocyclic compound and use thereof” (Takeda Pharmaceutical Company Limited, priority 2010, dated 2014):
Structures can show the parent of a compound that is named as a salt.

Each molecule was assayed against T1, AMPA receptor (human GluR1 flip/stargazin expressed in CHO-K1 cells) (Homo sapiens, UniProt P42261) (assay: AMPA receptor function enhancing activity using calcium influx as index). Settings: test compound 30 μM with 3 mM glutamic acid, change in fluorescence level in 3 min, 100% = 3 mM glutamic acid + 300 μM cyclothiazide, 0% = 3 mM glutamic acid only.
T1 construct: expressed in transfected cells; host or cells: CHO-K1
T1 sequence (P42261 19-906 isoform P42261-2 limits assumed): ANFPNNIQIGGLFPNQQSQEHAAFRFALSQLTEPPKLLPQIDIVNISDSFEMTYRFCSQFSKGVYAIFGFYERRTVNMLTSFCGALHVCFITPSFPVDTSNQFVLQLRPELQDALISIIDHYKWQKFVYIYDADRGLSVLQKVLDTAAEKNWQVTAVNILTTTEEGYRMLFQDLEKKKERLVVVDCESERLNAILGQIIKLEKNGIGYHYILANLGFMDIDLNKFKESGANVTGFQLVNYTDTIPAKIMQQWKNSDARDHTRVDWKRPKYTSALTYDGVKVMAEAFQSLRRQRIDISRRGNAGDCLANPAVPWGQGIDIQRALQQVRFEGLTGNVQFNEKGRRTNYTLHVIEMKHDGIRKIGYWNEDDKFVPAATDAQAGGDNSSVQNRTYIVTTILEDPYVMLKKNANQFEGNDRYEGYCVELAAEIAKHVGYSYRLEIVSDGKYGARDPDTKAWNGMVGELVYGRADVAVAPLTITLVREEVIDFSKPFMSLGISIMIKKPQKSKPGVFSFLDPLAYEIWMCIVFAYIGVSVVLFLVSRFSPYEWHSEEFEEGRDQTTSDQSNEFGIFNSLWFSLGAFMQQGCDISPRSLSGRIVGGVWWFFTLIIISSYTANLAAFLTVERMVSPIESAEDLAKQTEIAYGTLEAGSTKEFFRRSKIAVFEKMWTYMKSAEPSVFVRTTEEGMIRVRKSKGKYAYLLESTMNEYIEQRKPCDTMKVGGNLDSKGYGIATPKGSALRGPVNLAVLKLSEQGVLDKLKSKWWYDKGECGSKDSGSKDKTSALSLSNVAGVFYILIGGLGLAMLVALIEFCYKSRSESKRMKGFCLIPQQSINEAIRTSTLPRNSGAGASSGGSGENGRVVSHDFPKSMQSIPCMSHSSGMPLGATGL
T1 sequence (Q9Y698 whole entry partner): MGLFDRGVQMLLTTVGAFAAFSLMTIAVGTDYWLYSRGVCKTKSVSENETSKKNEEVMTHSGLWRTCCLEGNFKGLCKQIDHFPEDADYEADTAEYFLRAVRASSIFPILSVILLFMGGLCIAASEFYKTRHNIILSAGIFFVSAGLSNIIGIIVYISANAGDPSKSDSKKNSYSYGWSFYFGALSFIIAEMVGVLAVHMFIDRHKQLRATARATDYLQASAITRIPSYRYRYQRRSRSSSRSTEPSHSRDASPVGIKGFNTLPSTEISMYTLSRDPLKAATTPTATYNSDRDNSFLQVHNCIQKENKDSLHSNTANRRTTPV
Type: cell-based
Procedure, shortened: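 CHO-K1 clone stably co-expressing human GluR1 flip and stargazin, loaded with Calcium 4 dye plus probenecid. Compound at 30 μM was added with glutamate (3 mM final) and fluorescence change followed over 3 min. Activity is expressed as % of the 3 mM glutamate plus 300 μM cyclothiazide response, with glutamate alone as 0%.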
O=S1(=O)CCN2CCCC(c3ccc(-n4cccn4)cc3)C2=N1 (centres unmarked) [Example 290, 9-[4-(1H-pyrazol-1-yl)phenyl]-3,4,6,7,8,9-hexahydropyrido[2,1-c][1,2,4]thiadiazine 2,2-dioxide] was tested, and the “activity (%)” value was 79%. CCCCn1ccc2cc(C3=CC=CN4CCS(=O)(=O)N=C34)ccc21 [Example 292, 9-(1-butyl-1H-indol-5-yl)-3,4-dihydropyrido[2,1-c][1,2,4]thiadiazine 2,2-dioxide] was tested, and the “activity (%)” value was 90%.

Same assay, conditions: test compound 30 μM with glutamic acid final 3 mM, change in fluorescence in 3 min, 100% = 3 mM glutamic acid + 300 μM cyclothiazide, 0% = 3 mM glutamic acid only
CC(C)Cn1ccc2cc(C3=CC=CN4CCS(=O)(=O)N=C34)ccc21 [Example 293, 9-[1-(2-methylpropyl)-1H-indol-5-yl]-3,4-dihydropyrido[2,1-c][1,2,4]thiadiazine 2,2-dioxide] was tested, and the “activity (%)” value was 80%. In the case of CCCCn1ccc2cc(C3CCCN4CCS(=O)(=O)N=C34)ccc21 (centres unmarked) [Example 294, 9-(1-butyl-1H-indol-5-yl)-3,4,6,7,8,9-hexahydropyrido[2,1-c][1,2,4]thiadiazine 2,2-dioxide], the “activity (%)” value is reported as 82%. O=S1(=O)CCN2CCCC(c3ccc4c(ccn4CCc4ccc(F)cc4)c3)C2=N1 (centres unmarked) [Example 295, 9-{1-[2-(4-fluorophenyl)ethyl]-1H-indol-5-yl}-3,4,6,7,8,9-hexahydropyrido[2,1-c][1,2,4]thiadiazine 2,2-dioxide] was tested, and the “activity (%)” value was 64%. O=C(c1ccccc1)c1ccc(C2=CC=CN3CCS(=O)(=O)N=C23)cc1 [Example 298, [4-(2,2-dioxido-3,4-dihydropyrido[2,1-c][1,2,4]thiadiazin-9-yl)phenyl](phenyl)methanone] was tested, and the “activity (%)” value was 99%. O=S1(=O)CCN2C=CC=C(c3ccc(-n4nc(C(F)(F)F)cc4C4CC4)cc3)C2=N1 [Example 299, 9-{4-[5-cyclopropyl-3-(trifluoromethyl)-1H-pyrazol-1-yl]phenyl}-3,4-dihydropyrido[2,1-c][1,2,4]thiadiazine 2,2-dioxide] was tested, and the “activity (%)” value was 88%. Cc1cc(C(F)(F)F)nn1-c1ccc(C2=CC=CN3CCS(=O)(=O)N=C23)cc1 [Example 300, 9-{4-[5-methyl-3-(trifluoromethyl)-1H-pyrazol-1-yl]phenyl}-3,4-dihydropyrido[2,1-c][1,2,4]thiadiazine 2,2-dioxide] was tested, and the “activity (%)” value was 93%. For O=S1(=O)CCN2CCCC(c3ccc(-n4nc(C(F)(F)F)cc4C4CC4)cc3)C2=N1 (centres unmarked) [Example 301, 9-{4-[5-cyclopropyl-3-(trifluoromethyl)-1H-pyrazol-1-yl]phenyl}-3,4,6,7,8,9-hexahydropyrido[2,1-c][1,2,4]thiadiazine 2,2-dioxide], the “activity (%)” value was 76%. In the case of O=S1(=O)CCN2CCCC(COc3ccc4c(c3)CCCC4)C2=N1 (centres unmarked) [Example 303, 9-[(5,6,7,8-tetrahydronaphthalen-2-yloxy)methyl]-3,4,6,7,8,9-hexahydropyrido[2,1-c][1,2,4]thiadiazine 2,2-dioxide], the “activity (%)” value is reported as 82%. For O=C(c1ccccc1)c1ccc(C2CCCN3CCS(=O)(=O)N=C23)cc1 (centres unmarked) [Example 304, [4-(2,2-dioxido-3,4,6,7,8,9-hexahydropyrido[2,1-c][1,2,4]thiadiazin-9-yl)phenyl](phenyl)methanone], the “activity (%)” value was 87%. COc1cccc(C(=O)c2ccc(C3=CC=CN4CCS(=O)(=O)N=C34)cc2)c1 [Example 306, [4-(2,2-dioxido-3,4-dihydropyrido[2,1-c][1,2,4]thiadiazin-9-yl)phenyl](3-methoxyphenyl)methanone] was tested, and the “activity (%)” value was 89%. In the case of O=S1(=O)CCN2C=CC=C(c3ccc(Oc4ccc5c(c4)OCC5)cc3)C2=N1 [Example 313, 9-[4-(2,3-dihydro-1-benzofuran-6-yloxy)phenyl]-3,4-dihydropyrido[2,1-c][1,2,4]thiadiazine 2,2-dioxide], the “activity (%)” value is reported as 95%. For COc1cc(Oc2ccc(C3=CC=CN4CCS(=O)(=O)N=C34)cc2)ccc1F [Example 316, 9-[4-(4-fluoro-3-methoxyphenoxy)phenyl]-3,4-dihydropyrido[2,1-c][1,2,4]thiadiazine 2,2-dioxide], the “activity (%)” value was 89%. O=S1(=O)CCN2CCCC(c3ccc(C4(c5ccccc5)CCC4)cc3)C2=N1 (centres unmarked) [Example 321, 9-[4-(1-phenylcyclobutyl)phenyl]-3,4,6,7,8,9-hexahydropyrido[2,1-c][1,2,4]thiadiazine 2,2-dioxide] was tested, and the “activity (%)” value was 64%. In the case of CC(F)(F)c1ccc(Oc2ccc(C3=CC=CN4CCS(=O)(=O)N=C34)cc2)cc1 [Example 323, 9-{4-[4-(1,1-difluoroethyl)phenoxy]phenyl}-3,4-dihydropyrido[2,1-c][1,2,4]thiadiazine 2,2-dioxide], the “activity (%)” value is reported as 85%. In the case of Cc1ccc(Cc2ccc(C3CCCN4CCS(=O)(=O)N=C34)cc2)cc1 (centres unmarked) [Example 324, 9-[4-(4-methylbenzyl)phenyl]-3,4,6,7,8,9-hexahydropyrido[2,1-c][1,2,4]thiadiazine 2,2-dioxide], the “activity (%)” value is reported as 63%. CC(C)(c1ccccc1)c1ccc(C2=CC=CN3CCS(=O)(=O)N=C23)cc1 [Example 325, 9-[4-(1-methyl-1-phenylethyl)phenyl]-3,4-dihydropyrido[2,1-c][1,2,4]thiadiazine 2,2-dioxide] was tested, and the “activity (%)” value was 99%. With Cc1ccc(C(C)(C)c2ccc(C3=CC=CN4CCS(=O)(=O)N=C34)cc2)cc1 [Example 329, 9-{4-[1-methyl-1-(4-methylphenyl)ethyl]phenyl}-3,4-dihydropyrido[2,1-c][1,2,4]thiadiazine 2,2-dioxide] the “activity (%)” value was 82%. In the case of O=S1(=O)CCN2C=CN=C(c3ccc(-c4ccccc4)c(F)c3)C2=N1 [Example 344, 9-(2-fluorobiphenyl-4-yl)-3,4-dihydropyrazino[2,1-c][1,2,4]thiadiazine 2,2-dioxide], the “activity (%)” value is reported as 74%. With O=S1(=O)CCN2CCNC(c3ccc(-c4ccccc4)c(F)c3)C2=N1 (centres unmarked) [Example 345, 9-(2-fluorobiphenyl-4-yl)-3,4,6,7,8,9-hexahydropyrazino[2,1-c][1,2,4]thiadiazine 2,2-dioxide] the “activity (%)” value was 63%. For O=S1(=O)CCN2CCCC(c3ccc(Oc4ccccc4)c(F)c3)C2=N1 (centres unmarked) [Example 347, 9-(3-fluoro-4-phenoxyphenyl)-3,4,6,7,8,9-hexahydropyrido[2,1-c][1,2,4]thiadiazine 2,2-dioxide], the “activity (%)” value was 76%. For [2H]C1(c2ccc(-c3ccccc3)c(F)c2)NCCN2CCS(=O)(=O)N=C21 (centres unmarked) [Example 348, 9-(2-fluorobiphenyl-4-yl)(9-^2H)-3,4,6,7,8,9-hexahydropyrazino[2,1-c][1,2,4]thiadiazine 2,2-dioxide Hydrochloride], the “activity (%)” value was 64%. With CCCOc1ccc(C2=CC=CN3CCS(=O)(=O)N=C23)cc1F [Example 349, 9-(3-fluoro-4-propoxyphenyl)-3,4-dihydropyrido[2,1-c][1,2,4]thiadiazine 2,2-dioxide] the “activity (%)” value was 83%. In the case of CCCOc1ccc(C2CCCN3CCS(=O)(=O)N=C23)cc1F (centres unmarked) [Example 350, 9-(3-fluoro-4-propoxyphenyl)-3,4,6,7,8,9-hexahydropyrido[2,1-c][1,2,4]thiadiazine 2,2-dioxide], the “activity (%)” value is reported as 74%. In the case of CCCCOc1ccc(C2CCCN3CCS(=O)(=O)N=C23)cc1F (centres unmarked) [Example 352, 9-(4-butoxy-3-fluorophenyl)-3,4,6,7,8,9-hexahydropyrido[2,1-c][1,2,4]thiadiazine 2,2-dioxide], the “activity (%)” value is reported as 76%. O=S1(=O)CCN2CCCC(c3ccc(Oc4ccc(F)cc4)cc3)C2=N1 (centres unmarked) [Example 357, 9-[4-(4-fluorophenoxy)phenyl]-3,4,6,7,8,9-hexahydropyrido[2,1-c][1,2,4]thiadiazine 2,2-dioxide] was tested, and the “activity (%)” value was 77%. For CC(C)Oc1ccc(C2=CC=CN3CCS(=O)(=O)N=C23)cc1F [Example 361, 9-[3-fluoro-4-(1-methylethoxy)phenyl]-3,4-dihydropyrido[2,1-c][1,2,4]thiadiazine 2,2-dioxide], the “activity (%)” value was 85%. O=S1(=O)CCN2C=CC=C(c3ccc(C4(F)COC4)cc3)C2=N1 [Example 396, 9-[4-(3-fluorooxetan-3-yl)phenyl]-3,4-dihydropyrido[2,1-c][1,2,4]thiadiazine 2,2-dioxide] was tested, and the “activity (%)” value was 82%. For O=S1(=O)CCN2C=CC=C(c3ccc(N4CCOCC4)cc3)C2=N1 [Example 397, 9-(4-morpholin-4-ylphenyl)-3,4-dihydropyrido[2,1-c][1,2,4]thiadiazine 2,2-dioxide], the “activity (%)” value was 83%. With CC(=O)c1ccc(C2=CC=CN3CCS(=O)(=O)N=C23)cc1 [Example 400, 1-[4-(2,2-dioxido-3,4-dihydropyrido[2,1-c][1,2,4]thiadiazin-9-yl)phenyl]ethanone] the “activity (%)” value was 83%. With CSc1ccc(C2=CC=CN3CCS(=O)(=O)N=C23)cc1 [Example 408, 9-[4-(methylsulfanyl)phenyl]-3,4-dihydropyrido[2,1-c][1,2,4]thiadiazine 2,2-dioxide] the “activity (%)” value was 85%. In the case of CC(C)(C)Oc1ccc(C2=CC=CN3CCS(=O)(=O)N=C23)cc1 [Example 411, 9-(4-tert-butoxyphenyl)-3,4-dihydropyrido[2,1-c][1,2,4]thiadiazine 2,2-dioxide], the “activity (%)” value is reported as 86%. Cn1ccc2cc(C3=CC=CN4CCS(=O)(=O)N=C34)ccc21 [Example 412, 9-(1-methyl-1H-indol-5-yl)-3,4-dihydropyrido[2,1-c][1,2,4]thiadiazine 2,2-dioxide] was tested, and the “activity (%)” value was 91%. Cc1ccc(C2=CC=CN3CCS(=O)(=O)N=C23)cc1F [Example 423, 9-(3-fluoro-4-methylphenyl)-3,4-dihydropyrido[2,1-c][1,2,4]thiadiazine 2,2-dioxide] was tested, and the “activity (%)” value was 80%.
